Measured values from the supplement of paper PMC11424490.

Key:
SW837 = assay: combination cScore with adagrasib (Bliss gap around IC50) (%PoC); higher = stronger additive effect
Experimental: (§1)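 Combination screen of 179 inhibitors with the KRAS G12C inhibitor adagrasib (MRTX849) in dose matrices, CellTiter-Glo readout in NCI-H2122 (72 h), SW837 (144 h) and NCI-H358 cells. The cScore is the mean Bliss-independence gap (expected minus observed viability, in %PoC) over a 3x3 field around the IC50s of both drugs. Positive means additive, and >~10 is stated as clear additive.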

NCI-H2122 = assay: as above
Experimental: as §1

Row | Structure (SMILES) | combination cScore with adagrasib (SW837) | combination cScore with adagrasib (NCI-H2122)
1 | COc1cc([C@@H]2c3cc4c(cc3[C@@H](O[C@@H]3O[C@@H]5CO[C@@H](C)O[C@H]5[C@H](O)[C@H]3O)[C@H]3COC(=O)[C@H]23)OCO4)cc(OC)c1O [Etoposide] + C=C(F)C(=O)N1CCN(c2nc(OC[C@@H]3CCCN3C)nc3c2CCN(c2cccc4cccc(Cl)c24)C3)C[C@@H]1CC#N [adagrasib] | -0.11 | 2.33
2 | CO[C@H]1C[C@@H]2CC[C@@H](C)[C@@](O)(O2)C(=O)C(=O)N2CCCC[C@H]2C(=O)O[C@H]([C@H](C)C[C@@H]2CC[C@@H](OCCO)[C@H](OC)C2)CC(=O)[C@H](C)/C=C(\C)[C@@H](O)[C@@H](OC)C(=O)[C@H](C)C[C@H](C)/C=C/C=C/C=C/1C [Everolimus] + C=C(F)C(=O)N1CCN(c2nc(OC[C@@H]3CCCN3C)nc3c2CCN(c2cccc4cccc(Cl)c24)C3)C[C@@H]1CC#N [adagrasib] | 1.15 | -6.03
3 | CN1CC[C@H](c2c(O)cc(O)c3c(=O)cc(-c4ccccc4Cl)oc23)[C@H](O)C1 [Flavopiridol] + C=C(F)C(=O)N1CCN(c2nc(OC[C@@H]3CCCN3C)nc3c2CCN(c2cccc4cccc(Cl)c24)C3)C[C@@H]1CC#N [adagrasib] | 2.43 | -0.29
4 | Nc1nc(F)nc2c1ncn2[C@@H]1O[C@H](CO)[C@@H](O)[C@@H]1O [Fludarabine] + C=C(F)C(=O)N1CCN(c2nc(OC[C@@H]3CCCN3C)nc3c2CCN(c2cccc4cccc(Cl)c24)C3)C[C@@H]1CC#N [adagrasib] | 2.57 | -6.95
5 | O=c1[nH]cc(F)c(=O)[nH]1 [Fluorouracil (5-FU)] + C=C(F)C(=O)N1CCN(c2nc(OC[C@@H]3CCCN3C)nc3c2CCN(c2cccc4cccc(Cl)c24)C3)C[C@@H]1CC#N [adagrasib] | -0.87 | 9.62
6 | C[C@]12CC[C@@H]3c4ccc(O)cc4C[C@@H](CCCCCCCCC[S+]([O-])CCCC(F)(F)C(F)(F)F)[C@H]3[C@@H]1CC[C@@H]2O (some centres undefined) [Fulvestrant] + C=C(F)C(=O)N1CCN(c2nc(OC[C@@H]3CCCN3C)nc3c2CCN(c2cccc4cccc(Cl)c24)C3)C[C@@H]1CC#N [adagrasib] | 2.82 | 3.46
7 | CN(C)c1ccccc1CN1CCCN(Cc2ccccc2N(C)C)C1c1ccncc1 [GANT61] + C=C(F)C(=O)N1CCN(c2nc(OC[C@@H]3CCCN3C)nc3c2CCN(c2cccc4cccc(Cl)c24)C3)C[C@@H]1CC#N [adagrasib] | -0.37 | 7.28
8 | N#CN=C(NCCCCCCOc1ccc(Cl)cc1)Nc1ccncc1 [GMX1778] + C=C(F)C(=O)N1CCN(c2nc(OC[C@@H]3CCCN3C)nc3c2CCN(c2cccc4cccc(Cl)c24)C3)C[C@@H]1CC#N [adagrasib] | 2.82 | -7.75
9 | CCOC(=O)CCNc1cc(N2CCc3ccccc3CC2)nc(-c2ccccn2)n1 [GSK-J4] + C=C(F)C(=O)N1CCN(c2nc(OC[C@@H]3CCCN3C)nc3c2CCN(c2cccc4cccc(Cl)c24)C3)C[C@@H]1CC#N [adagrasib] | 0.593 | 17.9
10 | CC(C)c1cc(-c2n[nH]c(=O)n2-c2ccc3c(ccn3C)c2)c(O)cc1O [Ganetespib] + C=C(F)C(=O)N1CCN(c2nc(OC[C@@H]3CCCN3C)nc3c2CCN(c2cccc4cccc(Cl)c24)C3)C[C@@H]1CC#N [adagrasib] | 4.14 | -3.01
11 | Nc1ccn([C@@H]2O[C@H](CO)[C@@H](O)C2(F)F)c(=O)n1 [Gemcitabine] + C=C(F)C(=O)N1CCN(c2nc(OC[C@@H]3CCCN3C)nc3c2CCN(c2cccc4cccc(Cl)c24)C3)C[C@@H]1CC#N [adagrasib] | -2.8 | -4.78
12 | COc1ncc(-c2nc3c(n2C(C)C)[C@H](c2ccc(Cl)cc2)N(c2cc(Cl)cn(C)c2=O)C3=O)c(OC)n1 [HDM-201] + C=C(F)C(=O)N1CCN(c2nc(OC[C@@H]3CCCN3C)nc3c2CCN(c2cccc4cccc(Cl)c24)C3)C[C@@H]1CC#N [adagrasib] | 3.06 | 1.48
13 | CC(=O)[C@]1(O)Cc2c(O)c3c(c(O)c2[C@@H](O[C@H]2C[C@H](N)[C@H](O)[C@H](C)O2)C1)C(=O)c1ccccc1C3=O [Idarubicin] + C=C(F)C(=O)N1CCN(c2nc(OC[C@@H]3CCCN3C)nc3c2CCN(c2cccc4cccc(Cl)c24)C3)C[C@@H]1CC#N [adagrasib] | 2.73 | 4.03
14 | Cc1ccc(NC(=O)c2ccc(CN3CCN(C)CC3)cc2)cc1Nc1nccc(-c2cccnc2)n1 [Imatinib] + C=C(F)C(=O)N1CCN(c2nc(OC[C@@H]3CCCN3C)nc3c2CCN(c2cccc4cccc(Cl)c24)C3)C[C@@H]1CC#N [adagrasib] | -2.11 | -0.92
15 | CC(C)NC[C@@H](C(=O)N1CCN(c2ncnc3c2[C@H](C)C[C@H]3O)CC1)c1ccc(Cl)cc1 [Ipatasertib] + C=C(F)C(=O)N1CCN(c2nc(OC[C@@H]3CCCN3C)nc3c2CCN(c2cccc4cccc(Cl)c24)C3)C[C@@H]1CC#N [adagrasib] | 6.57 | 1.14
16 | O=C(/C=C\n1cnc(-c2cc(C(F)(F)F)cc(C(F)(F)F)c2)n1)NNc1cnccn1 [KPT-330] + C=C(F)C(=O)N1CCN(c2nc(OC[C@@H]3CCCN3C)nc3c2CCN(c2cccc4cccc(Cl)c24)C3)C[C@@H]1CC#N [adagrasib] | 3.48 | 8.01
17 | CN[C@@H](C)C(=O)N[C@H](C(=O)N1CCC[C@H]1c1nc(C(=O)c2ccc(F)cc2)cs1)C1CCCCC1 [LCL161] + C=C(F)C(=O)N1CCN(c2nc(OC[C@@H]3CCCN3C)nc3c2CCN(c2cccc4cccc(Cl)c24)C3)C[C@@H]1CC#N [adagrasib] | 1.58 | -1.85
18 | COc1ccccc1-c1cc(Nc2cccc(CS(N)(=O)=O)c2)ncn1 [LDC-067] + C=C(F)C(=O)N1CCN(c2nc(OC[C@@H]3CCCN3C)nc3c2CCN(c2cccc4cccc(Cl)c24)C3)C[C@@H]1CC#N [adagrasib] | 3.49 | 5.11
19 | Cc1cn(CCN2CCN(c3ccccc3-c3cc(C#N)cc(C(=O)NCCCN4CCCC4)c3)CC2)c2ccccc12 [LLY-507] + C=C(F)C(=O)N1CCN(c2nc(OC[C@@H]3CCCN3C)nc3c2CCN(c2cccc4cccc(Cl)c24)C3)C[C@@H]1CC#N [adagrasib] | 20.3 | 12.6
20 | Cc1ccc(NC(=O)c2ccnc(C(F)(F)F)c2)cc1-c1cc(OCCO)nc(N2CCOCC2)c1 [LXH-254] + C=C(F)C(=O)N1CCN(c2nc(OC[C@@H]3CCCN3C)nc3c2CCN(c2cccc4cccc(Cl)c24)C3)C[C@@H]1CC#N [adagrasib] | 0.67 | -3.51
21 | Nc1cccc2c1CN(C1CCC(=O)NC1=O)C2=O (centres undefined) [Lenalidomide] + C=C(F)C(=O)N1CCN(c2nc(OC[C@@H]3CCCN3C)nc3c2CCN(c2cccc4cccc(Cl)c24)C3)C[C@@H]1CC#N [adagrasib] | -3.14 | -12.8
22 | O=C(O)c1nn(Cc2ccc(Cl)cc2Cl)c2ccccc12 [Lonidamine] + C=C(F)C(=O)N1CCN(c2nc(OC[C@@H]3CCCN3C)nc3c2CCN(c2cccc4cccc(Cl)c24)C3)C[C@@H]1CC#N [adagrasib] | -1.95 | -1.92
